Test results from US20220273754A1, “SS-31 FOR THE PREVENTION AND/OR TREATMENT OF ANEURYSM” (FUNDACIÓ INSTITUT DE RECERCA DE L'HOSPITAL DE LA SANTA CREU …, priority 2019, published 2022).
Non-standard residues stand in square brackets, D forms with d. No end group written: not given here.

Key:
[1] = test system: ApoE−/− mice infused with Ang II; experiment: Survival of Ang II-infused ApoE−/− mice; format: in vivo; conditions: 3 mg/kg/day with Ang II 1000 ng/kg/min by osmotic minipump, 28 days
Procedure: (§1) The studies were developed in ApoE^−/− mice bred in the facility. The animals were infused with Ang II dissolved in saline (1000 ng/kg/min) by means of osmotic minipumps (model 1004, Alzet) implanted subcutaneously in the interscapular space of the mice previous anesthesia with isoflurane. The procedure lasted approximately 15 minutes per animal. Immediately after surgery, antibiotics (penicillin, 22,000 u/Kg, i.m.) and analgesics (buprenorphine 0.05 mg/Kg, i.m.) were administered to prevent infections and limit discomfort in the animals. Further, mice were kept on a heating pad until they woke up after surgery and were carefully monitored during the post-surgery period.
(§2) A group of mice infused with Ang II were treated with SS-31 in the form of chloride and dissolved in saline (3 mg/kg/day). Another group of animals infused with Ang II were treated with the SS-20 peptide also in the form of chloride, dissolved in saline and at the same dose. Both were administered together with Ang II by osmotic mini pump during the whole study (28 days). The control group consisted of ApoE^−/− mice infused with saline.

[2] = test system: ApoE−/− mice infused with Ang II; experiment: Aortic diameter and aneurysm incidence by ultrasonography in Ang II-infused ApoE−/− mice; format: in vivo; conditions: 28 days; for aortic diameter: 3 mg/kg/day with Ang II 1000 ng/kg/min by osmotic minipump, ultrasonography and macroscopic visualization; for incidence of AAA: 3 mg/kg/day with Ang II 1000 ng/kg/min, aneurysmal = external diameter >= 1.5 mm
Procedure: as §1, §2
The diameter of the aorta was evaluated weekly by abdominal echography using an ultrasound equipment (Vevo2100 Imaging systems; Visualsonics) with a 30 MHz transducer. The mice were anesthetized by inhalation of 1.5% isofluorane and secured in supine position on a thermal platform. After shaving the precord region, the transducer was applied to the abdominal wall to measure the abdominal aorta. Those abdominal aortas with external diameters greater than or equal to 1.5 mm were considered aneurysmal. All measurements were made from the captured images using the analysis software provided by Visualsonics.
(§3) After 4 weeks, the animals were euthanized under intraperitoneal terminal anesthesia with a mixture of medetomidine (1 mg/kg) and ketamine (75 mg/kg) in saline (final volume of 200 μl), the aortas were collected immediately, examined to determine the presence of aneurysms and fixed in paraformaldehyde or frozen in liquid nitrogen for subsequent RNA extraction.

[3] = test system: abdominal aorta of ApoE−/− mice infused with Ang II; experiment: Histology (Masson's trichrome, orcein) of abdominal aorta of Ang II-infused ApoE−/− mice; format: in vivo; conditions: 3 mg/kg/day with Ang II 1000 ng/kg/min, 28 days
Procedure: as §1, §2, §3

[4] = test system: MMP2; experiment: MMP2 mRNA by real-time PCR in abdominal aorta of Ang II-infused ApoE−/− mice; format: in vivo; conditions: 3 mg/kg/day with Ang II 1000 ng/kg/min, 28 days; normalized to GAPDH
Procedure: as §1
(§4) A group of mice infused with Ang II were treated with SS-31 in the form of chloride and dissolved in saline (3 mg/kg/day). Another group of animals infused with Ang II were treated with the SS-20 peptide also in the form of chloride, dissolved in saline and at the same dose. Both were administered together with Ang II by osmotic mini pump during the whole study (28 days). The control group consisted of ApoE^−/− mice infused with saline. […]
(§5) The expression levels (mRNA) of the metalloproteinases MMP2 and MMP9 in the abdominal aortas of the different study groups were also analyzed. […]

[5] = test system: MMP9; experiment: MMP9 mRNA by real-time PCR in abdominal aorta of Ang II-infused ApoE−/− mice; format: in vivo; conditions: 3 mg/kg/day with Ang II 1000 ng/kg/min, 28 days; normalized to GAPDH
Procedure: as §1, §4, §5

[6] = test system: mitochondrial permeability transition; conditions: cited from earlier work
[7] = test system: reactive oxygen species (ROS) production and lipid peroxidation; conditions: direct inhibition; cited from earlier work
[8] = test system: mitochondrial swelling and cytochrome c release; conditions: cited from earlier work
[9] = test system: myocardial contractile force during ischemia-reperfusion; conditions: SS-20 given after ischemia; cited from earlier work
[10] = test system: renal mitochondrial respiration; conditions: after ischemia; cited from earlier work
[11] = test system: angiotensin II (AngII)-induced cardiac hypertrophy; conditions: in vivo; cited from earlier work
[12] = test system: diabetic rats; conditions: cited from earlier work; for body weight: diabetic rats; for lipid metabolism: rat, in vivo
[13] = test system: humans and rodents maintained on a high fat diet; conditions: cited from earlier work

| Substance | survival rate [1] | aortic diameter [2] | incidence of AAA [2] | disorganization and rupture of elastic fibers (orcein staining) [3] | vascular remodeling: collagen deposition (Masson's trichrome) [3] | aortic MMP2 expression (mRNA) [4] | aortic MMP9 expression (mRNA) [5] | mitochondrial permeability transition [6] | ROS production and lipid peroxidation [7] | mitochondrial swelling and cytochrome c release [8] | protection of myocardial contractile force [9] | renal mitochondrial respiration [10] | AngII-induced cardiac hypertrophy, fibrosis and diastolic dysfunction [11] | body weight [12] | lipid metabolism [12] | insulin resistance [13] |
| --- | --- | --- | --- | --- | --- | --- | --- | --- | --- | --- | --- | --- | --- | --- | --- | --- |
| D-Arg-2′,6′-dimethyltyrosine-Lys-Phe-NH2 [SS-31] | significantly improved the survival rate | reduced the increase in aortic diameter significantly | significantly decreased the incidence of AAA | limited the disorganization and rupture of elastic fibers | attenuated by treatment with SS-31 | attenuated this effect | attenuated this effect | inhibits mitochondrial permeability transition | directly inhibit reactive oxygen species (ROS) production and lipid peroxidation | inhibits mitochondrial swelling and cytochrome c release | protects myocardial contractile force | significantly improved renal mitochondrial respiration | ameliorates | useful in reducing body weight | beneficial effects on lipid metabolism | attenuates insulin resistance |
| F[dR]FK-NH2 [SS-20] | did not modify the survival rate | could not attenuate this increase in the aortic diameter | did not alter the aortic diameter nor the incidence of aneurysms | not observed in animals treated with SS-20 | not by treatment with SS-20 | did not modify the increase in the mRNA level | did not modify the increase in the mRNA level | inhibits mitochondrial permeability transition | only SS-31 was demonstrated to directly inhibit |  | offered no protection | significantly improved renal mitochondrial respiration |  | useful in reducing body weight | beneficial effects on lipid metabolism |  |
